tested on: NL-RLuc virus (recombinant NL4-3 proviral clone with Renilla Luciferase gene); test: Inhibition of HIV replication (NL-RLuc reporter virus in MT-2 cells); type: cell-based; details: Renilla, NL43, 120 h, read-out: Activity
Description: Inhibition of HIV replication: A recombinant NL-RLuc proviral clone was constructed in which a section of the nef gene from NL4-3 was replaced with the Renilla Luciferase gene. This virus is fully infectious and can undergo multiple cycles of replication in cell culture. In addition, the luciferous reporter provides a simple and easy method for quantitating the extent of virus growth and consequently, the antiviral activity of test compounds. The plasmid pNLRLuc contains the proviral NL-Rluc DNA cloned into pUC18 at the PvuII site. The NL-RLuc virus was prepared by transfection of 293T cells with the plasmid pNLRLuc. Transfections were performed using the LipofectAMINE PLUS kit from Invitrogen (Carlsbad, Calif.) according to the manufacturer and the virus generated was titered in MT-2 cells. For susceptibility analyses, the titrated virus was used to infect MT-2 cells in the presence of compound, and after 5 days of incubation, cells were processed and quantitated for virus growth by the amount of expressed luciferase. Assay media was RPMI 1640 supplemented with 10% heat inactivated fetal bovine serum (FBS), 100 units/ml penicillin G/100 units/ml streptomycin, 10 mM HEPES buffer pH 7.55 and 2 mM L-glutamine. The results from at least 2 experiments were used to calculate the EC50 values. Luciferase was quantitated using the Dual Luciferase kit from Promega (Madison, Wis.). Susceptibility of viruses to compounds was determined by incubation in the presence of serial dilutions of the compound. The 50% effective concentration (EC50) was calculated by using the exponential form of the median effect equation where (Fa)=1/[1+(ED50/drug conc.)^m] (Johnson V A, Byington R T. Infectivity Assay. In Techniques in HIV Research. ed. Aldovini A, Walker B D. 71-76. New York: Stockton Press.1990). Activity equal to A refers to a compound having an EC50≤100 nM, while B and C denote compounds having an EC50 between 100 nM and 1 uM (B) or >1 uM (C).

| Structure (SMILES) | EC50 |
| --- | --- |
| Cc1nc(C)c([C@H](OC(C)(C)C)C(=O)O)c(N2CCC(C)(C)CC2)c1-c1ccc(SCCC(C)C)cc1 [Example 23, (S)-2-(tert-Butoxy)-2-(4-(4,4-dimethylpiperidin-1-yl)-5-(4-(isopentylthio)phenyl)-2,6-dimethylpyridin-3-yl)acetic acid] | < 0.1 µM |
| Cc1nc(C)c([C@H](OC(C)(C)C)C(=O)O)c(N2CCC(C)(C)CC2)c1-c1ccc(/C=C/C#N)cc1 [Example 49, (S,E)-2-(tert-Butoxy)-2-(5-(4-(2-cyanovinyl)phenyl)-4-(4,4-dimethylpiperidin-1-yl)-2,6-dimethylpyridin-3-yl)acetic acid] | 0.1 to 1 µM |
| Cc1nc(C)c([C@H](OC(C)(C)C)C(=O)O)c(N2CCC(C)(C)CC2)c1-c1ccc(CCc2ccc(F)cc2)cc1 [Example 85, (S)-2-(tert-Butoxy)-2-(4-(4,4-dimethylpiperidin-1-yl)-5-(4-(4-fluorophenethyl)-phenyl)-2,6-dimethylpyridin-3-yl)acetic acid] | < 0.1 µM |
| CC(=O)N(CCc1ccc(F)cc1)c1ccc(-c2c(C)nc(C)c([C@H](OC(C)(C)C)C(=O)O)c2N2CCC(C)(C)CC2)cc1 [Example 75, (S)-2-(tert-Butoxy)-2-(4-(4,4-dimethylpiperidin-1-yl)-5-(4-(N-(4-fluorophenethyl)acetamido)phenyl)-2,6-dimethylpyridin-3-yl)acetic acid] | < 0.1 µM |
| Cc1nc(C)c([C@H](OC(C)(C)C)C(=O)O)c(N2CCC(C)(C)CC2)c1-c1cncnc1 [Example 28, (S)-2-(tert-Butoxy)-2-(4-(4,4-dimethylpiperidin-1-yl)-2,6-dimethyl-5-(pyrimidin-5-yl)pyridin-3-yl)acetic acid] | 0.1 to 1 µM |
| Cc1nc(C)c([C@H](OC(C)(C)C)C(=O)O)c(N2CCC(C)(C)CC2)c1-c1ccc(C(C)(C)C#N)cc1 [Example 36, (S)-2-(tert-Butoxy)-2-(5-(4-(2-cyanopropan-2-yl)phenyl)-4-(4,4-dimethylpiperidin-1-yl)-2,6-dimethylpyridin-3-yl)acetic acid] | < 0.1 µM |
| Cc1nc(C)c([C@H](OC(C)(C)C)C(=O)O)c(N2CCC(C)(C)CC2)c1-c1ccc(S(=O)(=O)CCc2ccc(F)cc2)cc1 [Example 79, (S)-2-(tert-Butoxy)-2-(4-(4,4-dimethylpiperidin-1-yl)-5-(4-((4-fluorophenethyl)sulfonyl)phenyl)-2,6-dimethylpyridin-3-yl)acetic acid] | < 0.1 µM |
| Cc1nc(C)c([C@H](OC(C)(C)C)C(=O)O)c(N2CC(C(C)C)C2)c1-c1ccc(C(=O)NCc2ccccc2)cc1 [Example 59, (S)-2-(5-(4-(Benzylcarbamoyl)phenyl)-4-(3-isopropylazetidin-1-yl)-2,6-dimethylpyridin-3-yl)-2-(tert-butoxy)acetic acid] | > 1 µM |
| Cc1cccc(-c2ccc(-c3c(C)nc(C)c([C@H](OC(C)(C)C)C(=O)O)c3N3CCC(C)(C)CC3)cc2)c1 [Example 17, (S)-2-(tert-Butoxy)-2-(4-(4,4-dimethylpiperidin-1-yl)-2,6-dimethyl-5-(3′-methyl-[1,1′-biphenyl]-4-yl)pyridin-3-yl)acetic acid] | < 0.1 µM |
| Cc1nc(C)c([C@H](OC(C)(C)C)C(=O)O)c(N2CCC(C)(C)CC2)c1-c1ccc(CCCc2ccc(F)cc2)cc1 [Example 52, (S)-2-(tert-Butoxy)-2-(4-(4,4-dimethylpiperidin-1-yl)-5-(4-(3-(4-fluorophenyl)propyl)phenyl)-2,6-dimethylpyridin-3-yl)acetic acid] | < 0.1 µM |
| Cc1nc(C)c([C@H](OC(C)(C)C)C(=O)O)c(N2CCC(C)(C)CC2)c1-c1ccc(/S(CCc2ccc(F)cc2)=N/C(=O)OC(C)(C)C)cc1 (stereo partly drawn) [Example 80, (2S)-2-(tert-Butoxy)-2-(5-(4-((E)-N-(tert-butoxycarbonyl)-S-(4-fluorophenethyl)sulfinimidoyl)phenyl)-4-(4,4-dimethylpiperidin-1-yl)-2,6-dimethylpyridin-3-yl)acetic acid] | < 0.1 µM |
| Cc1nc(C)c([C@H](OC(C)(C)C)C(=O)O)c(N2CCC(C)(C)CC2)c1-c1ccc(NCCc2ccc(F)cc2)cc1 [Example 73, (S)-2-(tert-Butoxy)-2-(4-(4,4-dimethylpiperidin-1-yl)-5-(4-((4-fluorophenethyl)amino)phenyl)-2,6-dimethylpyridin-3-yl)acetic acid] | < 0.1 µM |
| Cc1nc(C)c([C@H](OC(C)(C)C)C(=O)O)c(N2CCC(C)(C)CC2)c1-c1ccc(-c2ccccc2)c(F)c1 [Example 14, (S)-2-(tert-Butoxy)-2-(4-(4,4-dimethylpiperidin-1-yl)-5-(2-fluoro-[1,1′-biphenyl]-4-yl)-2,6-dimethylpyridin-3-yl)acetic acid] | < 0.1 µM |
| Cc1nc(C)c([C@H](OC(C)(C)C)C(=O)O)c(N2CCC(C)(C)CC2)c1-c1ccc(S(=O)(CCc2ccc(F)cc2)=NC(=O)OC(C)(C)C)cc1 (stereo partly drawn) [Example 81, (2S)-2-(tert-Butoxy)-2-(5-(4-(N-(tert-butoxycarbonyl)-2-(4-fluorophenyl)ethylsulfonimidoyl)phenyl)-4-(4,4-dimethylpiperidin-1-yl)-2,6-dimethylpyridin-3-yl)acetic acid] | < 0.1 µM |
| Cc1nc(C)c([C@H](OC(C)(C)C)C(=O)O)c(N2CCC(C)(C)CC2)c1-c1ccc(N(CCO)CCc2ccc(F)cc2)cc1 [Example 77, (S)-2-(tert-Butoxy)-2-(4-(4,4-dimethylpiperidin-1-yl)-5-(4-((4-fluorophenethyl)(2-hydroxyethyl)amino)phenyl)-2,6-dimethylpyridin-3-yl)acetic acid] | < 0.1 µM |
| Cc1nc(C)c([C@H](OC(C)(C)C)C(=O)O)c(N2CCC(Cc3ccccc3)CC2)c1-c1ccc(C(=O)NCc2ccccc2)cc1 [Example 64, (S)-2-(5-(4-(Benzylcarbamoyl)phenyl)-4-(4-benzylpiperidin-1-yl)-2,6-dimethylpyridin-3-yl)-2-(tert-butoxy)acetic acid] | 0.1 to 1 µM |
| Cc1nc(C)c([C@H](OC(C)(C)C)C(=O)O)c(N2CCC(C)(C)CC2)c1-c1ccc(C(O)CCc2ccc(F)cc2)cc1 (stereo partly drawn) [Example 51, (2S)-2-(tert-Butoxy)-2-(4-(4,4-dimethylpiperidin-1-yl)-5-(4-(3-(4-fluorophenyl)-1-hydroxypropyl)phenyl)-2,6-dimethylpyridin-3-yl)acetic acid] | < 0.1 µM |
| Cc1nc(C)c([C@H](OC(C)(C)C)C(=O)O)c(N2CCC(C)(C)CC2)c1-c1cc(F)c(F)c(F)c1 [Example 33, (S)-2-(tert-Butoxy)-2-(4-(4,4-dimethylpiperidin-1-yl)-2,6-dimethyl-5-(3,4,5-trifluorophenyl)pyridin-3-yl)acetic acid] | < 0.1 µM |
| Cc1nc(C)c([C@H](OC(C)(C)C)C(=O)O)c(N2CCC(C)(C)CC2)c1-c1ccc(-c2ncc(-c3ccc(F)cc3)o2)cc1 [Example 5, (S)-2-(tert-Butoxy)-2-(4-(4,4-dimethylpiperidin-1-yl)-5-(4-(5-(4-fluorophenyl)oxazol-2-yl)phenyl)-2,6-dimethylpyridin-3-yl)acetic acid] | < 0.1 µM |
| Cc1nc(C)c([C@H](OC(C)(C)C)C(=O)O)c(N2CCC(C)(C)CC2)c1-c1ccc(C=Cc2ccc(F)cc2)cc1 [Example 84, (S)-2-(tert-Butoxy)-2-(4-(4,4-dimethylpiperidin-1-yl)-5-(4-(4-fluorostyryl)phenyl)-2,6-dimethylpyridin-3-yl)acetic acid] | 0.1 to 1 µM |
| Cc1nc(C)c([C@H](OC(C)(C)C)C(=O)O)c(N2CCC(C)(C)CC2)c1-c1ccc(C(=O)NCc2ccccc2)cc1 [Example 24, (S)-2-(5-(4-(Benzylcarbamoyl)phenyl)-4-(4,4-dimethylpiperidin-1-yl)-2,6-dimethylpyridin-3-yl)-2-(tert-butoxy)acetic acid] | < 0.1 µM |
| Cc1cc(CNC(=O)c2ccc(-c3c(C)nc(C)c([C@H](OC(C)(C)C)C(=O)O)c3N3CCC(C)(C)CC3)cc2)ccc1F [Example 1, (S)-2-(tert-Butoxy)-2-(4-(4,4-dimethylpiperidin-1-yl)-5-(4-((4-fluoro-3-methylbenzyl)carbamoyl)phenyl)-2,6-dimethylpyridin-3-yl)acetic acid] | < 0.1 µM |
| Cc1nc(C)c([C@H](OC(C)(C)C)C(=O)O)c(N2CCC(C)(C)CC2)c1-c1ccc(-c2ccccn2)cc1 [Example 13, (S)-2-(tert-butoxy)-2-(4-(4,4-dimethylpiperidin-1-yl)-2,6-dimethyl-5-(4-(pyridin-2-yl)phenyl)pyridin-3-yl)acetic acid] | < 0.1 µM |
| Cc1nc(C)c([C@H](OC(C)(C)C)C(=O)O)c(N2CCC(C)(C)CC2)c1-c1ccc(N2CCCCC2)cc1 [Example 29, (S)-2-(tert-Butoxy)-2-(4-(4,4-dimethylpiperidin-1-yl)-2,6-dimethyl-5-(4-(piperidin-1-yl)phenyl)pyridin-3-yl)acetic acid] | < 0.1 µM |

same assay, conditions: Renilla, NL43, 120 h, read-out: EC50 μM

| Structure (SMILES) | EC50 |
| --- | --- |
| Cc1cccc(-c2ccc(-c3c(C)nc(C)c([C@H](OC(C)(C)C)C(=O)O)c3N3CCC(C)(C)CC3)cc2)c1 [Example 17, (S)-2-(tert-Butoxy)-2-(4-(4,4-dimethylpiperidin-1-yl)-2,6-dimethyl-5-(3′-methyl-[1,1′-biphenyl]-4-yl)pyridin-3-yl)acetic acid] | 0.053 µM |
| Cc1nc(C)c([C@H](OC(C)(C)C)C(=O)O)c(N2CCC(C)(C)CC2)c1-c1ccc(C=Cc2ccc(F)cc2)cc1 [Example 84, (S)-2-(tert-Butoxy)-2-(4-(4,4-dimethylpiperidin-1-yl)-5-(4-(4-fluorostyryl)phenyl)-2,6-dimethylpyridin-3-yl)acetic acid] | 0.126 µM |
| Cc1cc(CNC(=O)c2ccc(-c3c(C)nc(C)c([C@H](OC(C)(C)C)C(=O)O)c3N3CCC(C)(C)CC3)cc2)ccc1F [Example 1, (S)-2-(tert-Butoxy)-2-(4-(4,4-dimethylpiperidin-1-yl)-5-(4-((4-fluoro-3-methylbenzyl)carbamoyl)phenyl)-2,6-dimethylpyridin-3-yl)acetic acid] | 0.007 µM |

Source: patent publication US20180170904A1, “PYRIDIN-3-YL ACETIC ACID DERIVATIVES AS INHIBITORS OF HUMAN IMMUNODEFICIENCY VIRUS REPLICATION” (priority 2015, published 2018)
